System: 885724-159-R-J1-PDC complex spheroid viability
Assay: Anticancer human tumor 885724-159-R-J1-PDC patient-derived pancreatic adenocarcinoma cell line growth inhibition [POLQ]
Conditions: for IC50: curve of first compound; for viability, T/C: stronger effect = lower value
Description: Multicellular complex tumor spheroid response to Polymerase (POL) inhibitors (novobiocin, ART-558, RP6685) in combination with a variety of drugs and investigational agents in selected tumor cell lines
The POL inhibitors (novobiocin, ART-558, and RP6685) were evaluated both individually and in combination with standard of care and investigational anticancer small molecules within a complex spheroid model of solid tumors. . Complex spheroids include a stromal component modeled by human endothelial cells (HUVEC) and fibroblasts modeled by human mesenchymal stem cells (MSCs). The concentration ranges selected for each drug and investigational agent were based upon clinically achievable concentrations if the clinical Cmax of the agent was known.
Compounds. The drugs and investigational agents: novobiocin (NSC847541), ART-558 (NSC835418), RP-6685 (NSC848927), peposertib (NSC802822), ceralasertib (NSC780249), elimusertib (NSC800525), camonsertib (NSC841442), AZD-1390 (NSC803789), olaparib (NSC753686), talazoparib (NSC767125), rucaparib (NSC756644), sotorasib (NSC818433), MRTX-1133 (NSC836407), SN-38 (NSC673596), topotecan (NSC609699), epotoside (NSC141540), doxorubicin (NSC123127), gemcitabine (NSC613327), 5-fluorouracil (NSC19893), paclitaxel (NSC125973), vemurafenib (NSC761431), MSA-2 (NSC828583), SN-011 (NSC837082), adavosertib (NSC754352), prexasertib (NSC758257), carboplatin (NSC241240) and oxaliplatin (NSC266046), were obtained from the National Cancer Institute (NCI) Developmental Therapeutics Program Chemical Repository (21). The FDA-approved anticancer drug set is available from the Developmental Therapeutics Program at https://dtp.cancer.gov/organization/dscb/obtaining/. […] The stock solutions were prepared in dimethyl sulfoxide (DMSO, Sigma-Aldrich, St. Louis, MO, cat. D2650), except for the platinum compounds which were prepared in saline (Quality Biological, Gaithersburg, MD, cat. 114-055-101), at 800-fold the tested concentration and stored at -70 degrees C prior to their use. All drugs and investigational agents were tested over a range starting from a high concentration at or near the clinical Cmax and decreasing in half-log increments. If the clinical Cmax for an agent had not been determined, the highest concentration tested was 10 microM, except for SN-38, which was tested at a high concentration of 1 microM.
Cell Culture. All cells were maintained in an incubator at 37 degrees C and 5% CO2 with 95% humidity. The PDC lines were cultured according to standard operating procedures established by the NCI PDMR (https://pdmr.cancer.gov). Table 3 of the manuscript, lists the cell lines along with the number of the three cell types plated to form the mct-spheroids and media for tumor cell growth. After thawing, all PDC lines, except 997537-175-T-J1-PDC and 415267-285-R-J2-PDC, were cultured in Matrigel-coated flasks prepared with a working solution of 1X Ham's F-12 nutrient mix, without supplementation (Thermo Fisher Scientific, cat. 11765054), 100 U/mL penicillin-streptomycin (Thermo Fisher Scientific, cat. 15140122), and 2.5% Matrigel (Corning Inc., Corning, NY, cat. 354248) for the first three passages. The two PDC lines 997537-175-T-J1-PDC and 415267-285-R-J2-PDC were cultured on uncoated flasks. The 857933-349-R-J2-PDC line was cultured in 6C/Colon 1B media containing advanced DMEM/F-12 (Thermo Fisher Scientific, cat. 12634028), 10 mM HEPES (Thermo Fisher Scientific, cat. 15630080), 1X GlutaMAX supplement (Thermo Fisher Scientific, cat. 35050061), 0.1 mg/mL primocin (InvivoGen, San Diego, CA, cat. ant-pm-2), 10% defined fetal bovine serum, heat inactivated (HyClone Laboratories Inc., Logan, UT, cat. SH30070.03HI), 50% L-WRN conditioned media (ATCC, cat. CRL-3276), 1.25 mM N-Acetyl-L-cysteine (Sigma-Aldrich, cat. A9165), 10 mM nicotinamide (Sigma-Aldrich, cat. N0636), 1X B-27 supplement (Thermo Fisher Scientific, cat. 17504044), 1X N-2 supplement (Thermo Fisher Scientific, cat. […]
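Also: spheroids exposed to compounds for 7 days.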

Work on `Nc1ccn(C2OC(CO)C(O)C2(F)F)c(=O)n1` (configuration not stated) + Nc1ccc(C#CCN(C(=O)Cc2ncc(C(F)(F)F)cc2C(F)(F)F)c2ccc(F)cc2)nn1 yielded an IC50 (second compound 0.0316 µM) of 1.04 µM, an IC50 (second compound 0.1 µM) of 1.88 µM and an IC50 (second compound 0.316 µM) of 2.27 µM. For the same molecule, the IC50 (second compound 1 µM) was 0.886 µM, the IC50 (second compound 3.16 µM) was > 10 µM and the IC50 (second compound 10 µM) was > 10 µM. The viability, T/C (second compound 0.0316 µM, first compound 0.0316 µM) was 65.5%, the viability, T/C (second compound 0.0316 µM, first compound 0.1 µM) was 57.2% and the viability, T/C (second compound 0.0316 µM, first compound 0.316 µM) was 47%. It also gave a viability, T/C (second compound 0.0316 µM, first compound 1 µM) of 55.1%, a viability, T/C (second compound 0.0316 µM, first compound 3.16 µM) of 54.8% and a viability, T/C (second compound 0.0316 µM, first compound 10 µM) of 42.1%. It also gave a viability, T/C (second compound 0.1 µM, first compound 0.0316 µM) of 70.2%, a viability, T/C (second compound 0.1 µM, first compound 0.1 µM) of 60.2% and a viability, T/C (second compound 0.1 µM, first compound 0.316 µM) of 54.3%. The viability, T/C (second compound 0.1 µM, first compound 1 µM) was 55.2%, the viability, T/C (second compound 0.1 µM, first compound 3.16 µM) was 49.6% and the viability, T/C (second compound 0.1 µM, first compound 10 µM) was 44.2%. It also gave a viability, T/C (second compound 0.316 µM, first compound 0.0316 µM) of 72%, a viability, T/C (second compound 0.316 µM, first compound 0.1 µM) of 62.9% and a viability, T/C (second compound 0.316 µM, first compound 0.316 µM) of 56.5%. The viability, T/C (second compound 0.316 µM, first compound 1 µM) was 53.2%, the viability, T/C (second compound 0.316 µM, first compound 3.16 µM) was 49.1% and the viability, T/C (second compound 0.316 µM, first compound 10 µM) was 46.3%. For the same molecule, the viability, T/C (second compound 1 µM, first compound 0.0316 µM) was 72.4%, the viability, T/C (second compound 1 µM, first compound 0.1 µM) was 55.4% and the viability, T/C (second compound 1 µM, first compound 0.316 µM) was 54.2%. For the same molecule, the viability, T/C (second compound 1 µM, first compound 1 µM) was 51.2%, the viability, T/C (second compound 1 µM, first compound 3.16 µM) was 49% and the viability, T/C (second compound 1 µM, first compound 10 µM) was 47.1%. For the same molecule, the viability, T/C (second compound 3.16 µM, first compound 0.0316 µM) was 77.5%, the viability, T/C (second compound 3.16 µM, first compound 0.1 µM) was 60.9% and the viability, T/C (second compound 3.16 µM, first compound 0.316 µM) was 55.7%. It also gave a viability, T/C (second compound 3.16 µM, first compound 1 µM) of 50.8%, a viability, T/C (second compound 3.16 µM, first compound 3.16 µM) of 55.8% and a viability, T/C (second compound 3.16 µM, first compound 10 µM) of 46.4%. For the same molecule, the viability, T/C (second compound 10 µM, first compound 0.0316 µM) was 96%, the viability, T/C (second compound 10 µM, first compound 0.1 µM) was 72% and the viability, T/C (second compound 10 µM, first compound 0.316 µM) was 69.3%. It also gave a viability, T/C (second compound 10 µM, first compound 1 µM) of 59.2%, a viability, T/C (second compound 10 µM, first compound 3.16 µM) of 54.9% and a viability, T/C (second compound 10 µM, first compound 10 µM) of 55.2%.

Source: PubChem BioAssay AID1963832 (Molecular Pharmacology Branch, DTP, NCI, 2024)
